# Values quoted from earlier work in patent US11135320B2, “Radioligands for pretargeted pet imaging and methods of their therapeutic use” (priority 2015, dated 2021).
# Like-named read-outs stand apart in the source and are kept apart here.
# Legend:
# [1] = system: subcutaneous SW1222 xenografts (A33 antigen-expressing human colorectal carcinoma); conditions: 24 h accumulation interval, Zeglis 2013, cited from earlier work
# [2] = pretargeting, 24 h interval; Zeglis 2013; cited from earlier work
compound,measurement,setting,value
O=C([O-])CN1CCN(CC(=O)[O-])CC(Cc2ccc(NC(=O)CCCC(=O)NCc3ccc(-c4nncnn4)cc3)cc2)N(CC(=O)[O-])CC1.[64Cu+2] (centres unmarked) [^64Cu-Tz-NOTA],Blood activity concentration,[1]; 1 h p.i.,3.47 ± 0.63 % ID/g
same,Bone activity concentration,[1]; 1 h p.i.,0.3 ± 0.16 % ID/g
same,Heart activity concentration,[1]; 1 h p.i.,1.09 ± 0.18 % ID/g
same,Kidney activity concentration,[1]; 1 h p.i.,1.3 ± 0.15 % ID/g
same,Large Intestine activity concentration,[1]; 1 h p.i.,13.29±3.15 % ID/g
same,Liver activity concentration,[1]; 1 h p.i.,2.19 ± 0.25 % ID/g
same,Lung activity concentration,[1]; 1 h p.i.,1.58 ± 0.46 % ID/g
same,Muscle activity concentration,[1]; 1 h p.i.,0.22 ± 0.04 % ID/g
same,Small Intestine activity concentration,[1]; 1 h p.i.,0.03 ± 0.04 % ID/g
same,Spleen activity concentration,[1]; 1 h p.i.,0.63 ± 0.07 % ID/g
same,Stomach activity concentration,[1]; 1 h p.i.,0.45 ± 0.08 % ID/g
same,Tumor activity concentration,[1]; 1 h p.i.,4.07 ± 0.25 % ID/g
same,Tumor/Blood activity concentration ratio,[1]; 1 h p.i.,1.17 ± 0.22
same,Tumor/Bone activity concentration ratio,[1]; 1 h p.i.,13.72 ± 7.63
same,Tumor/Heart activity concentration ratio,[1]; 1 h p.i.,3.75 ± 0.65
same,Tumor/Kidney activity concentration ratio,[1]; 1 h p.i.,3.14 ± 0.41
same,Tumor/Large Intestine activity concentration ratio,[1]; 1 h p.i.,0.31 ± 0.08
same,Tumor/Liver activity concentration ratio,[1]; 1 h p.i.,1.86 ± 0.24
same,Tumor/Lung activity concentration ratio,[1]; 1 h p.i.,2.57 ± 0.76
same,Tumor/Muscle activity concentration ratio,[1]; 1 h p.i.,18.42 ± 3.71
same,Tumor/Small Intestine activity concentration ratio,[1]; 1 h p.i.,119.52 ± 148.82
same,Tumor/Spleen activity concentration ratio,[1]; 1 h p.i.,6.46 ± 0.81
same,Tumor/Stomach activity concentration ratio,[1]; 1 h p.i.,8.96 ± 1.7
same,Blood activity concentration,[1]; 4 h p.i.,2.61 ± 0.83 % ID/g
same,Bone activity concentration,[1]; 4 h p.i.,0.27 ± 0.24 % ID/g
same,Heart activity concentration,[1]; 4 h p.i.,0.91 ± 0.27 % ID/g
same,Kidney activity concentration,[1]; 4 h p.i.,0.95 ± 0.31 % ID/g
same,Large Intestine activity concentration,[1]; 4 h p.i.,9.43 ± 4.22 % ID/g
same,Liver activity concentration,[1]; 4 h p.i.,1.26 ± 0.3 % ID/g
same,Lung activity concentration,[1]; 4 h p.i.,1.6 ± 0.39 % ID/g
same,Muscle activity concentration,[1]; 4 h p.i.,0.14 ± 0.03 % ID/g
same,Small Intestine activity concentration,[1]; 4 h p.i.,0.38 ± 0.08 % ID/g
same,Spleen activity concentration,[1]; 4 h p.i.,0.51 ± 0.22 % ID/g
same,Stomach activity concentration,[1]; 4 h p.i.,0.25 ± 0.12 % ID/g
same,Tumor activity concentration,[1]; 4 h p.i.,4.09±0.61 % ID/g
same,Tumor/Blood activity concentration ratio,[1]; 4 h p.i.,1.57 ± 0.55
same,Tumor/Bone activity concentration ratio,[1]; 4 h p.i.,14.95 ± 13.2
same,Tumor/Heart activity concentration ratio,[1]; 4 h p.i.,4.51 ± 1.49
same,Tumor/Kidney activity concentration ratio,[1]; 4 h p.i.,4.32 ± 1.56
same,Tumor/Large Intestine activity concentration ratio,[1]; 4 h p.i.,0.43 ± 0.2
same,Tumor/Liver activity concentration ratio,[1]; 4 h p.i.,3.23 ± 0.9
same,Tumor/Lung activity concentration ratio,[1]; 4 h p.i.,2.55 ± 0.73
same,Tumor/Muscle activity concentration ratio,[1]; 4 h p.i.,29.38 ± 8.5
same,Tumor/Small Intestine activity concentration ratio,[1]; 4 h p.i.,10.83 ± 2.8
same,Tumor/Spleen activity concentration ratio,[1]; 4 h p.i.,7.97 ± 3.57
same,Tumor/Stomach activity concentration ratio,[1]; 4 h p.i.,16.17 ± 8.21
same,Blood activity concentration,[1]; 12 h p.i.,2.31 ± 0.4 % ID/g
same,Bone activity concentration,[1]; 12 h p.i.,0.35 ± 0.11 % ID/g
same,Heart activity concentration,[1]; 12 h p.i.,0.92 ± 0.14 % ID/g
same,Kidney activity concentration,[1]; 12 h p.i.,0.91 ± 0.29 % ID/g
same,Large Intestine activity concentration,[1]; 12 h p.i.,2.92 ± 1.34 % ID/g
same,Liver activity concentration,[1]; 12 h p.i.,0.93 ± 0.23 % ID/g
same,Lung activity concentration,[1]; 12 h p.i.,1.09 ± 0.38 % ID/g
same,Muscle activity concentration,[1]; 12 h p.i.,0.16 ± 0.02 % ID/g
same,Small Intestine activity concentration,[1]; 12 h p.i.,0.77 ± 0.51 % ID/g
same,Spleen activity concentration,[1]; 12 h p.i.,0.59 ± 0.25 % ID/g
same,Stomach activity concentration,[1]; 12 h p.i.,0.52 ± 0.64 % ID/g
same,Tumor activity concentration,[1]; 12 h p.i.,4.20 ± 0.84 % ID/g
same,Tumor/Bone activity concentration ratio,[1]; 12 h p.i.,11.98 ± 4.51
same,Tumor/Heart activity concentration ratio,[1]; 12 h p.i.,4.58 ± 1.16
same,Tumor/Kidney activity concentration ratio,[1]; 12 h p.i.,4.6 ± 1.71
same,Tumor/Large Intestine activity concentration ratio,[1]; 12 h p.i.,1.44±0.72
same,Tumor/Liver activity concentration ratio,[1]; 12 h p.i.,4.53 ± 1.45
same,Tumor/Lung activity concentration ratio,[1]; 12 h p.i.,3.87 ± 1.55
same,Tumor/Small Intestine activity concentration ratio,[1]; 12 h p.i.,5.46 ± 3.81
same,Tumor/Spleen activity concentration ratio,[1]; 12 h p.i.,7.1 ± 3.34
same,Tumor/Stomach activity concentration ratio,[1]; 12 h p.i.,8.12 ± 10.12
same,Blood activity concentration,[1]; 24 h p.i.,2.07 ± 0.49 % ID/g
same,Bone activity concentration,[1]; 24 h p.i.,0.29 ± 0.07 % ID/g
same,Heart activity concentration,[1]; 24 h p.i.,0.82 ± 0.21 % ID/g
same,Kidney activity concentration,[1]; 24 h p.i.,0.7 ± 0.19 % ID/g
same,Large Intestine activity concentration,[1]; 24 h p.i.,1.67 ± 0.88 % ID/g
same,Liver activity concentration,[1]; 24 h p.i.,1.07 ± 0.15 % ID/g
same,Lung activity concentration,[1]; 24 h p.i.,1.03 ± 0.31 % ID/g
same,Muscle activity concentration,[1]; 24 h p.i.,0.15 ± 0.02 % ID/g
same,Small Intestine activity concentration,[1]; 24 h p.i.,0.35 ± 0.04 % ID/g
same,Spleen activity concentration,[1]; 24 h p.i.,0.45 ± 0.11 % ID/g
same,Stomach activity concentration,[1]; 24 h p.i.,0.16 ± 0.03 % ID/g
same,Tumor activity concentration,[1]; 24 h p.i.,3.94 ± 0.92 % ID/g
same,Tumor/Blood activity concentration ratio,[1]; 24 h p.i.,1.9 ± 0.63
same,Tumor/Bone activity concentration ratio,[1]; 24 h p.i.,13.43 ± 4.5
same,Tumor/Heart activity concentration ratio,[1]; 24 h p.i.,4.82 ± 1.69
same,Tumor/Kidney activity concentration ratio,[1]; 24 h p.i.,5.61 ± 1.98
same,Tumor/Large Intestine activity concentration ratio,[1]; 24 h p.i.,2.36 ± 1.37
same,Tumor/Liver activity concentration ratio,[1]; 24 h p.i.,3.69 ± 1.01
same,Tumor/Lung activity concentration ratio,[1]; 24 h p.i.,3.83 ± 1.45
same,Tumor/Muscle activity concentration ratio,[1]; 24 h p.i.,26.98 ± 7.41
same,Tumor/Small Intestine activity concentration ratio,[1]; 24 h p.i.,11.4 ± 2.91
same,Tumor/Spleen activity concentration ratio,[1]; 24 h p.i.,8.79 ± 2.98
same,Tumor/Stomach activity concentration ratio,[1]; 24 h p.i.,24.29 ± 6.89
same,Adrenals absorbed dose,[2],0.0251 rad/mCi
same,Bladder Wall absorbed dose,[2],0.0262 rad/mCi
same,Brain absorbed dose,[2],0.0236 rad/mCi
same,Breasts absorbed dose,[2],0.0209 rad/mCi
same,Effective Dose,[2],0.046 rem/mCi
same,Gallbladder Wall absorbed dose,[2],0.0272 rad/mCi
same,Heart Wall absorbed dose,[2],0.0294 rad/mCi
same,Kidneys absorbed dose,[2],0.0315 rad/mCi
same,Liver absorbed dose,[2],0.0311 rad/mCi
same,Lower Lg. Int. Wall absorbed dose,[2],0.166 rad/mCi
same,Lungs absorbed dose,[2],0.0289 rad/mCi
same,Muscle absorbed dose,[2],0.0138 rad/mCi
same,Osteogenic Cells absorbed dose,[2],0.0852 rad/mCi
same,Ovaries absorbed dose,[2],0.0299 rad/mCi
same,Pancreas absorbed dose,[2],0.0258 rad/mCi
same,Red Marrow absorbed dose,[2],0.0530 rad/mCi
same,Skin absorbed dose,[2],0.0194 rad/mCi
same,Small Intestine absorbed dose,[2],0.033 rad/mCi
same,Spleen absorbed dose,[2],0.0180 rad/mCi
same,Stomach Wall absorbed dose,[2],0.0267 rad/mCi
same,Testes absorbed dose,[2],0.0225 rad/mCi
same,Thymus absorbed dose,[2],0.0227 rad/mCi
same,Thyroid absorbed dose,[2],0.0228 rad/mCi
same,Total Body absorbed dose,[2],0.0272 rad/mCi
same,Upper Lg. Int. Wall absorbed dose,[2],0.114 rad/mCi
same,Uterus absorbed dose,[2],0.0277 rad/mCi
